According to US4782154A, “Isoquinoline derivatives” (Mitsui Toatsu Chemicals, Inc., priority 1986, dated 1988):

Test system: Mongrel dogs
Experiment: Recovery of LV dP/dtmax in propranolol-induced heart failure state, anesthetized dogs (Test Example 1)
Type: in vivo
Details: iv; for ED100: Canis lupus familiaris, dose required for recovering the reduction in LV dP/dtmax to the value before propranolol administration, anesthetized mongrel dogs; for Blood pressure: change in BP at ED100, variation coefficient relative to the values of the stable (heart failure) state; for Blood pressure / Number of heart beat: dogs; for Number of heart beat: change in HR at ED100, variation coefficient relative to the values of the stable (heart failure) state
Experimental: Mongrel dogs of either sex, weighing 8 to 12 kg, were anesthetized with sodium pentobarbital (30 mg/kg i.v.). The left ventricular pressure (LVP) was measured with a sensor tip transducer and the maximum rate of rise of LVP (LV dP/dtmax) was calculated by an electronic differentiator. Polyethylene cannulae were inserted into the femoral artery to measure systemic blood pressure (BP) and into the femoral veins for administration or infusion of chemicals. BP was measured with a pressure transducer and heart rate (HR) by a cardiotachometer from the pressure pulse. The respective parameters were simultaneously recorded on a multichannel polygraph.
To induce and maintain heart failure state, propranolol was administered in a bolus injection (4 mg/kg i.v.) followed by an infusion (0.1 mg/kg/min i.v.). […] The dose of tested chemicals required for recovering the reduction in the LV dP/dtmax to the value before the propranolol administration was determined and defined as an ED100. The changes in BP and HR at ED100 were expressed by the variation coefficient relative to the values of the stable state.

## Cc1[nH]c(=O)c(C(C)(C)O)c2c1CC(c1ccccn1)CC2 (stereo not drawn) [Example 18, 4-(2-(2-hydroxypropyl))-1-methyl-7-(2-pyridyl)-5,6,7,8-teterahydro-3(2H)isoquinolinone]
  ED100: 0.3 mg/kg
  Blood pressure: -8.3%
  Number of heart beat: +30.1%

## Cc1[nH]c(=O)c(CO)c2c1CC(c1ccncc1)CC2 (stereo not drawn) [Example 13, 4-(hydroxymethyl)-1-methyl-7-(4-pyridyl)-5,6,7,8-tetrahydro-3(2H)isoquinolinone]
  ED100: 0.3 mg/kg
  Blood pressure: -2.6%
  Number of heart beat: +20.0%

## CCCC(=O)c1c2c(c(C)[nH]c1=O)CC(c1ccncc1)CC2 (stereo not drawn) [Example 5, 4-butylyl-1-methyl-7-(4-pyridyl)5,6,7,8-tetrahydro-3(2H)isoquinolinone]
  ED100: 3 mg/kg
  Blood pressure: -20.2%
  Number of heart beat: +23.7%

## Cc1[nH]c(=O)c(C(C)O)c2c1CC(c1ccncc1)CC2 (stereo not drawn) [Example 12, 4-(1-hydroxyethyl)-1-methyl-7-(4-pyridyl)-5,6,7,8-tetrahydro-3(2H)isoquinolinone]
  ED100: 3 mg/kg
  Blood pressure: -19.7%
  Number of heart beat: +22.5%

## Cc1[nH]c(=O)c(C)c2c1CC(c1ccncc1)CC2 (stereo not drawn) [Example 11, 1,4-dimethyl-7-(4-pyridyl)-5,6,7,8-tetrahydro-3(2H)isoquinolinone]
  ED100: 0.3 mg/kg
  Blood pressure: -28.5%
  Number of heart beat: +21.0%

## Cc1[nH]c(=O)c(C(F)(F)C(F)(F)F)c2c1CC(c1ccncc1)CC2 (stereo not drawn) [Example 16, 1-methyl-4-pentafluoroethyl-7-(4-pyridyl)-5,6,7,8-tetrahydro-3(2H)isoquinolinone]
  ED100: 3 mg/kg
  Blood pressure: -15.9%
  Number of heart beat: +29.1%

## CCc1c2c(c(C)[nH]c1=O)CC(c1ccncc1)CC2 (stereo not drawn) [Example 8, 4-ethyl-1-methyl-7-(4-pyridyl)-5,6,7,8-tetrahydro-3(2H)isoquinolinone]
  ED100: 0.03 mg/kg
  Blood pressure: -22.5%
  Number of heart beat: +25.3%

## CCC(=O)c1c2c(c(C)[nH]c1=O)CC(c1ccncc1)CC2 (stereo not drawn) [Example 4, 1-methyl-4-propionyl-7-(4-pyridyl)-5,6,7,8-tetrahydro-3(2H)isoquinolinone]
  ED100: 3 mg/kg
  Blood pressure: -18.0%
  Number of heart beat: +26.2%

## CCCCc1[nH]c(=O)c(C(C)=O)c2c1CC(c1ccncc1)CC2 (stereo not drawn) [Example 2, 4-acetyl-1-butyl-7-(4-pyridyl)-5,6,7,8-tetrahydro-3-(2H)isoquinolinone]
  ED100: 3 mg/kg
  Blood pressure: -11.5%
  Number of heart beat: +18.3%

## Cc1[nH]c(=O)c(C=O)c2c1CC(c1ccncc1)CC2 (stereo not drawn) [Example 10, 4-formyl-1-methyl-7-(4-pyridyl)-5,6,7,8-tetrahydro-3(2H)isoquinolinone]
  ED100: 3 mg/kg
  Blood pressure: -17.5%
  Number of heart beat: +24.2%

## CCc1c2c(c(C)[nH]c1=O)CC(c1ccccn1)CC2 (stereo not drawn) [Example 17, 4-ethyl-1-methyl-7-(2-pyridyl)-5,6,7,8-tetrahydro-3(2H)isoquinolinone]
  ED100: 0.1 mg/kg
  Blood pressure: -2.1%
  Number of heart beat: +15.0%

## CCCCC(=O)c1c2c(c(C)[nH]c1=O)CC(c1ccncc1)CC2 (stereo not drawn) [Example 6, 1-methyl-7-(4-pyridyl)5,6,7,8-tetrahydro-4-valeryl-3(2H)isoquinolinone]
  ED100: 3 mg/kg
  Blood pressure: -10.5%
  Number of heart beat: +19.8%

## CC(=O)c1c2c(c(C3CC3)[nH]c1=O)CC(c1ccncc1)CC2 (stereo not drawn) [Example 3]
  ED100: 3 mg/kg
  Blood pressure: -27.8%
  Number of heart beat: +30.6%

## Cc1[nH]c(=O)c(C(=O)c2ccccc2)c2c1CC(c1ccncc1)CC2 (stereo not drawn) [Example 7, 4-benzoyl-1-methyl-7-(4-pyridyl)5,6,7,8-tetrahydro-3(2H)isoquinolinone]
  ED100: 3 mg/kg
  Blood pressure: -28.3%
  Number of heart beat: +29.6%

## C=C(C)c1c2c(c(C)[nH]c1=O)CC(c1ccccn1)CC2 (stereo not drawn) [Example 19, 4-isopropenyl-1-methyl-7-(2-pyridyl)-5,6,7,8-teterahydro-3(2H)isoquinolinon]
  ED100: 0.1 mg/kg
  Blood pressure: -15.9%
  Number of heart beat: +27.6%

## CCCc1c2c(c(C)[nH]c1=O)CC(c1ccncc1)CC2 (stereo not drawn) [Example 9, 1-methyl-4-propyl-7-(4-pyridyl)-5,6,7,8-tetrahydro-3(2H)isoquinolinone]
  ED100: 0.3 mg/kg
  Blood pressure: -16.6%
  Number of heart beat: +14.4%

## Cc1[nH]c(=O)c(C(C)(C)O)c2c1CC(c1ccncc1)CC2 (stereo not drawn) [Example 14, 4-(2-(2-hydroxypropyl))-1-methyl-7-(4-pyridy)-5,6,7,8-tetrahydro-3(2H)isoquinolinone]
  ED100: 0.1 mg/kg
  Blood pressure: -9.3%
  Number of heart beat: +32.6%

## CCc1[nH]c(=O)c(C(C)=O)c2c1CC(c1ccncc1)CC2 (stereo not drawn) [Example 1, 4-acetyl-1-ethyl-7-(4-pyridyl)-5,6,7,8-tetrahydro-3(2H)isoquinolinone]
  ED100: 1 mg/kg
  Blood pressure: -32.1%
  Number of heart beat: +17.3%

## C=C(C)c1c2c(c(C)[nH]c1=O)CC(c1ccncc1)CC2 (stereo not drawn) [Example 15, 4-isopropenyl-1-methyl-7-(4-pyridyl)-5,6,7,8-tetrahydro-3(2H)isoquinolinone]
  ED100: 0.03 mg/kg
  Blood pressure: -16.4%
  Number of heart beat: +28.6%
